Here are results for 6 compounds from patent publication US20260184663A1, “INDENE COMPOUNDS, PHARMACEUTICAL COMPOSITIONS THEREOF, AND THEIR THERAPEUTIC APPLICATIONS” (NucMito Pharmaceuticals co. Ltd., priority 2022, published 2026).

Common to all, as to assay type: cell-based
The test system of experiment [1] is SW480 (colon cancer). In words: Antiproliferative activity (CCK-8 cell viability), SW480. The settings on record: Homo sapiens, 72 h, read-out: Antiproliferative activity in cancerous cells, SW480 (inhibition of cell growth); for inhibition at 3.3 µM: Compound concentration: 3.3 μM; for inhibition at 10 µM: Compound concentration: 10 μM. The method, boiled down:
(§1)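 Growth inhibition graded in bands from percent viability against DMSO vehicle, read as CCK-8 absorbance at 450 nm. Compound tested at 3.3, 10 or 30 μM for 72 h, 37 °C; media contained 10% FBS: DMEM for HepG2/SW480, MEM for HeLa, F-12K for A549.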

The test system of experiment [2] is alpha-smooth muscle actin (α-SMA). In words: Inhibition of TGF-β induced expression of alpha-smooth muscle actin (α-SMA) in CFSC cells (western blot). As to conditions: compound at 10 μM, TGF-β (10 ng/mL), 24 hours, band intensity vs TGF-β only. In short, it runs like this:
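CFSC hepatic stellate cells in serum-free DMEM treated 24 h at 37 °C with compound at 10 μM plus TGF-β (10 ng/mL). α-SMA measured by Western blot with β-actin, ECL detection, densitometry. Percent inhibition is decrease in band intensity versus TGF-β-only cells.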
For orientation: A western blot detects proteins with antibodies after separation by electrophoresis.

The subject of experiment [3] is A431 (epidermoid carcinoma). In words: Antiproliferative activity (CCK-8 cell viability), A431. The settings on record: Homo sapiens, 72 h; for inhibition at 3.3 µM: A-431, Compound concentration: 3.3 μM; for inhibition at 10 µM: A-431, Compound concentration: 10 μM; for inhibition at 30 µM: A-431, Compound concentration: 30 μM. In short, it runs like this:
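This growth inhibition assay used A431 cells maintained in Dulbecco's modified Eagle's medium plus 10% fetal bovine serum. Cells were seeded in 96-well plates, treated with compound for 72 h at 37° C., and then given 10 μL CCK-8 solution. After a further 4 h, absorbance was read at 450 nm.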

The subject of experiment [4] is B16F10 (malignant melanoma). The experiment is described as follows: Antiproliferative activity (CCK-8 cell viability), B16F10. As to conditions: Mus musculus, 72 h; for inhibition at 3.3 µM: B16-F10, Compound concentration: 3.3 μM; for inhibition at 10 µM: B16-F10, Compound concentration: 10 μM; for inhibition at 30 µM: B16-F10, Compound concentration: 30 μM. In short, it runs like this: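 Cell growth inhibition was measured in B16F10 malignant melanoma cells with a Cell Counting Kit-8 viability assay. Cells were maintained in DMEM plus 10% fetal bovine serum, seeded at 2,000-5,000 cells/well in 96-well plates, and treated for 72 h at 37° C. Viability was expressed relative to DMSO-treated vehicle control wells.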

For experiment [5], the system named is HeLa (cervical cancer). The experiment is described as follows: Antiproliferative activity (CCK-8 cell viability), HeLa. The settings on record: Homo sapiens, 72 h, read-out: Antiproliferative activity in cancerous cells, HELA (inhibition of cell growth); for inhibition at 3.3 µM: Compound concentration: 3.3 μM; for inhibition at 10 µM: Compound concentration: 10 μM. In short, it runs like this: as §1

The test system of experiment [6] is A549 (lung adenocarcinoma). The experiment is described as follows: Antiproliferative activity (CCK-8 cell viability), A549. As to conditions: Homo sapiens, 72 h, read-out: Antiproliferative activity in cancerous cells, A549 (inhibition of cell growth); for inhibition at 3.3 µM: Compound concentration: 3.3 μM; for inhibition at 10 µM: Compound concentration: 10 μM. The method, boiled down: as §1

Experiment [7] relates to MDA-MB-231 (breast cancer). The experiment is described as follows: Antiproliferative activity (CCK-8 cell viability), MDA-MB-231. The settings on record: Homo sapiens, 72 h, read-out: Antiproliferative activity in cancerous cells, MDA-MB-231 (inhibition of cell growth); for inhibition at 3.3 µM: Compound concentration: 3.3 μM; for inhibition at 10 µM: Compound concentration: 10 μM. In short, it runs like this:
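Growth inhibition of human MDA-MB-231 breast cancer cells was assessed with a Cell Counting Kit-8. Cells cultured in DMEM plus 10% FBS were seeded at 2,000-5,000 cells/well, treated after attachment, and kept 72 h at 37° C. CCK-8 solution (10 μL) was added for 4 h, and absorbance at 450 nm was compared with DMSO-treated controls.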

The test system of experiment [8] is HepG2 (liver cancer). The experiment is described as follows: Antiproliferative activity (CCK-8 cell viability), HepG2. The settings on record: Homo sapiens, 72 h, read-out: Antiproliferative activity in cancerous cells, HepG2 (inhibition of cell growth); for inhibition at 3.3 µM: Compound concentration: 3.3 μM; for inhibition at 10 µM: Compound concentration: 10 μM. The method, boiled down:
as §1

Where [9] appears, read: read-out: Antiproliferative activity in cancerous cells, A431 (inhibition of cell growth).
Setting [10] is: read-out: Antiproliferative activity in cancerous cells, B16F10 (inhibition of cell growth).

Read-outs that look alike come from different tables or passages of the source.

`O=C(O)CC1=C(CC2CCCC2)/C(=C/c2cccc(Oc3ccccc3)c2)c2ccc(F)cc21` [C20, (Z)-2-(2-(Cyclopentylmethyl)-5-fluoro-1-(3-phenoxybenzylidene)-1H-inden-3-yl)acetic acid]: the inhibition at 3.3 µM is at least 50% in experiment [1]; at least 50% in experiment [3] (setting [9]); at least 50% in experiment [4] (setting [10]); 30 to 50% in experiment [5]; 30 to 50% in experiment [6]; 30 to 50% in experiment [7]. Moreover, in experiment [8], the inhibition at 3.3 µM was below 30%. For the same compound, the inhibition at 10 µM is at least 50% in experiment [1]; above 80% in experiment [2]; at least 50% in experiment [3] (setting [9]); at least 50% in experiment [4] (setting [10]); at least 50% in experiment [5]; at least 50% in experiment [6]. The inhibition at 10 µM in experiment [7] was at least 50%; in experiment [8], below 30%.

Regarding `CC1=C(CC(=O)O)c2cc(F)cc(F)c2/C1=C/c1ccc(COc2ccccc2)cc1` [E2, (E)-2-(5,7-Difluoro-2-methyl-1-(4-(phenoxymethyl)benzylidene)-1H-inden-3-yl)-acetic acid], the inhibition at 3.3 µM in experiment [1] was at least 50%; in experiment [3] (setting [9]), 30 to 50%; in experiment [4] (setting [10]), at least 50%; in experiment [5], at least 50%; in experiment [6] it was below 30%; in experiment [7], below 30%. In addition, in experiment [8], the inhibition at 3.3 µM lay within 30 to 50%. Moreover, the inhibition at 10 µM in experiment [1] is at least 50%; in experiment [2] it was 50 to 80%; in experiment [3] (setting [9]), at least 50%; in experiment [4] (setting [10]), at least 50%; in experiment [5] it was at least 50%; in experiment [6], 30 to 50%. Moreover, the inhibition at 10 µM in experiment [7] and in experiment [8] was at least 50% in each case. Besides, the inhibition at 30 µM in experiment [1] (Compound concentration: 30 μM), in experiment [3] (setting [9]), in experiment [4] (setting [10]), in experiment [5] (Compound concentration: 30 μM), in experiment [6] (Compound concentration: 30 μM) and in experiment [7] (Compound concentration: 30 μM) was at least 50% throughout. For the same compound, in experiment [8] (Compound concentration: 30 μM), the inhibition at 30 µM is at least 50%.

As to `CC1=C(CC(=O)O)c2cc(F)ccc2/C1=C\c1ccccc1OCc1ccccc1` [B28, (Z)-2-(1-(2-(Benzyloxy)benzylidene)-5-fluoro-2-methyl-1H-inden-3-yl)acetic acid], the inhibition at 3.3 µM in experiment [1] is 30 to 50%; in experiment [3] (setting [9]), at least 50%; in experiment [4] (setting [10]), below 30%; in experiment [5], at least 50%; in experiment [6], 30 to 50%; in experiment [7], 30 to 50%. The inhibition at 3.3 µM in experiment [8] is at least 50%. The inhibition at 10 µM in experiment [1] was at least 50%; in experiment [2], above 80%; in experiment [3] (setting [9]), at least 50%; in experiment [4] (setting [10]), 30 to 50%; in experiment [5], at least 50%; in experiment [6] it was at least 50%. Also, the inhibition at 10 µM in experiment [7] and in experiment [8] was at least 50% each time.

Take `O=C(O)CC1=C(Cc2ccc(Oc3ccc(F)cc3)cc2)/C(=C/c2ccc(N3CCOCC3)cc2)c2ccc(F)cc21` [A102, (Z)-2-(5-Fluoro-2-(4-(4-fluorophenoxy)benzyl)-1-(4-morpholinobenzylidene)-1H-inden-3-yl)acetic acid]: the inhibition at 3.3 µM in experiment [1], in experiment [3] (setting [9]), in experiment [4] (setting [10]), in experiment [5], in experiment [6] and in experiment [7] was at least 50% each time. Moreover, in experiment [8], the inhibition at 3.3 µM was at least 50%. The inhibition at 10 µM in experiment [1] is at least 50%; in experiment [2] it was above 80%; in experiment [3] (setting [9]), at least 50%; in experiment [4] (setting [10]), at least 50%; in experiment [5] it was at least 50%; in experiment [6], at least 50%. In addition, the inhibition at 10 µM in experiment [7] and in experiment [8] was at least 50% throughout.

For `CCc1ccc2c(c1)C(CC(=O)O)=C(C)/C2=C/c1ccc(COc2ccccc2)cc1` [B5, (Z)-2-(5-Ethyl-2-methyl-1-(4-(phenoxymethyl)benzylidene)-1H-inden-3-yl)acetic acid], the inhibition at 3.3 µM was at least 50% in experiment [1]; at least 50% in experiment [3] (setting [9]); at least 50% in experiment [4] (setting [10]); below 30% in experiment [5]; 30 to 50% in experiment [6]; below 30% in experiment [7]. The inhibition at 3.3 µM in experiment [8] is at least 50%. Besides, the inhibition at 10 µM was at least 50% in experiment [1]; above 80% in experiment [2]; at least 50% in experiment [3] (setting [9]); at least 50% in experiment [4] (setting [10]); at least 50% in experiment [5]; at least 50% in experiment [6]. The inhibition at 10 µM in experiment [7] and in experiment [8] was at least 50% throughout.

Regarding `O=C(O)CC1=C(Cc2ccc(Oc3ccc(F)cc3)cc2)/C(=C/c2ccc(CN3CCOCC3)cc2)c2ccc(F)cc21` [A113, (Z)-2-(5-Fluoro-2-(4-(4-fluorophenoxy)benzyl)-1-(4-(morpholinomethyl)-benzylidene)-1H-inden-3-yl)acetic acid], the inhibition at 3.3 µM in experiment [1] is at least 50%; in experiment [3] (setting [9]), below 30%; in experiment [4] (setting [10]), below 30%; in experiment [5], at least 50%; in experiment [6], 30 to 50%; in experiment [7], at least 50%. The inhibition at 3.3 µM in experiment [8] was at least 50%. Also, the inhibition at 10 µM in experiment [1] was at least 50%; in experiment [2] it was above 80%; in experiment [3] (setting [9]), below 30%; in experiment [4] (setting [10]), below 30%; in experiment [5], at least 50%; in experiment [6], 30 to 50%. For the same compound, the inhibition at 10 µM in experiment [7] and in experiment [8] was at least 50% each time. For the same compound, the inhibition at 30 µM in experiment [3] (read-out: Antiproliferative activity in cancerous cells, A431) was below 30%; in experiment [4] (read-out: Antiproliferative activity in cancerous cells, B16F10) it was below 30%.
